Three compounds from patent US20090275605A1, “3,11 b-cis-Dihydrotetrabenazine for the Treatment of a Proliferative Disease or an Inflammatory Disease” (CAMBRIDGE LABORATORIES (IRELAND) LIMITED, priority 2005, published 2009) can be followed below.

Values joined by “and” are separate entries in the source; they are usually repeats but may differ in a detail not shown here. Identical values can stand only once. “Also recorded” adds a separate entry of the source.

The target in one experiment is T1, Sigma σ1 Receptor (Homo sapiens, UniProt Q99720).
T1 construct: Source: Human jurkat cells; endogenous in cells; host or cells: Human Jurkat cells
In words: Sigma σ1 receptor radioligand binding ([3H]Haloperidol). The settings on record: for Percentage Inhibition of Specific Binding at Sigma-1 Receptor: 10 μM solutions, human jurkat cells, 8 nM [3H]Haloperidol. On the procedure:
The four dihydrotetrabenazine isomers A, B, C and D subjected to specific binding assays to test their ability to bind to the sigma-1 and sigma-2 receptors. (a) Sigma σ1 Receptor: Reference: […] et al., Pharmacol. Exp. Ther., 289:251-260, (1999) Source: Human jurkat cells […] Vehicle: 1% DMSO Incubation time/Temp: 4 hours (25° C.

The target in the next experiment is T2, Sigma σ2 Receptor (Rattus norvegicus, UniProt Q5U3Y7).
T2 construct: Source: Wistar rat brain; from tissue; host or cells: Wistar rat brain
T2 sequence (Q5U3Y7 1-176): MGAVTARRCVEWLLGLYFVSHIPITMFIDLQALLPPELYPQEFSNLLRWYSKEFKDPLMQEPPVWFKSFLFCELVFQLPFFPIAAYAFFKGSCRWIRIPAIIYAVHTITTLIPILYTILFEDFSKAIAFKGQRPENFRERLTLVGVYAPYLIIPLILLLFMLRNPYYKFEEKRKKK
In words: Sigma σ2 receptor radioligand binding ([3H]Ifenprodil). The settings on record: 10 μM solutions; Wistar rat brain; 3 nM [3H]Ifenprodil. On the procedure: The four dihydrotetrabenazine isomers A, B, C and D subjected to specific binding assays to test their ability to bind to the sigma-1 and sigma-2 receptors.
Reference: Hashimoto et al., Eur. J. Pharmacol., 236:159-163, (1993) Source: Wistar rat brain
Incubation time/Temp: 60 minutes @ 37° C.
Bmax: 1.3 pmole/mg protein Specific binding: 85% Quantitation method: Radioligand binding Significance criteria: ≧50% of maximum stimulation or inhibition

Experiment [1] deals with LPS/IFNγ stimulated human CD14+ monocytes. Nature of the experiment: LPS/IFN stimulated production of cytokines by human monocytes (CBA cytokine analysis). It counts as cell-based. On the procedure:
The compounds of the invention were tested to determine the extent to they can modulate the production of cytokines by human monocytes. Monocytes are precursors of macrophages and are a key source of inflammatory cytokines in a wide range of disease states.
The following treatment groups were set up.
MACS Buffer: 1×PBS pH 7.2, 2 mM EDTA (Sigma), 5% human AB serum Culture Media: 500 ml RPMI 1640 (Invitrogen), 5 ml Penstrep (Sigma), 5 ml L-glutamine (Invitrogen), 10 ml HEPES (Sigma), 5% autologous plasma. Compounds: Stock at 10 mM in absolute ethanol. LPS: Salmonella abortis at 1 mg/ml (Sigma, Cat # LI 887). IFNγ: Recombinant human at 10 μg/ml (BD Pharmacia, Cat # 554617). MACS CD14 positive selection beads and LS columns (Miltenyi Biotech). CD14: FITC antibody (Miltenyi Biotech) Buffy coat obtained from Bristol National Blood Services. 1 ml of blood should give 7×10^6 total cells.
Spin buffycoat at 3500 rpm, 10 min. Remove upper plasma layer and heat-inactivate at 56° C., 30 min. Spin at 3500 rpm, 10 min to remove heat-inactivated complement proteins etc.
1. Resuspend remaining buffycoat in an equal volume of RPMI 1 640 medium and mix by inversion. 2. Prewarm histopaque (Sigma) to room temperature (RT) and add 10 ml to a universal. 3. Gently overlay with 15 ml blood/medium mix. 4. Spin at 1600 rpm for 25 minutes at RT (no brake). 5. PBMC are separated into the interface layer between the medium and the histopaque, remove cells to a 50 ml Falcon and add 10 ml medium.
6. Spin at 1800 rpm for 10 min at RT.
7. Wash ×3 with 40 ml RPMI medium and resuspend in culture medium. Isolate CD14^+ Cells by Positive Selection with CD14^+ MicroBeads Work on ice, with pre-cooled solutions. 1. Determine cell numbers (313×10×5×10^4=1.565×10^8 total cells) 2. Remove 100 μl cell sample for Fluorescence-Activated Cell-Sorting (FACS) analysis (pre-selection sample). 3. Spin at 1800 rpm for 10 minutes at 4° C. Remove supernatant. 4. Resuspend pellet in 80 μl buffer per 1×10^7 total cells (2400 μL/total cells). 5. Add 20 μl CD14 MicroBeads per 1×10^7 total cells (400 μl/total cells). 6. Mix well and incubate for 15 minutes at 4-8° C. 7. Wash cells with 1-2 ml buffer, spin at 300×g, 10 minutes at 4° C. Remove supernatant. 8. Resuspend up to 1×10^8 cells in 500 μl buffer (1 ml/total cells). Magnetic Separation with LS Column 1. Place column in magnetic field of MACS® Separator. Rinse column with 3 ml of MACS buffer. 2. Add cell suspension to column. 3. Collect unlabelled cells which pass through. Wash column with 3×3 ml buffer, allowing the column reservoir to empty between each wash. Collect total effluent (unlabelled cell fraction). 4. Remove column from separator and place on collection tube. 5. Add 5 ml buffer to column, immediately flushing out fraction with magnetically labelled cells by applying column plunger. 6. Spin cells in MACS Buffer and resuspend cell pellet in media. 7. Perform cell count on positively selected cells. • 71×20×5×10^4=7.1×10^7 cells/ml. Have 1.75 ml∴1.24×10^8 total cells. 8. Take sample to check purity by FACS add 10 μl CD14-FITC antibody and incubate, 5 minutes at 4-8° C.
Prepare compounds at 10 mM in absolute ethanol. Dilute prior to culture in media to the required concentrations.
Isolated CD14^+ monocytes were cultured in 24-well plates at 1×10^6 cells/ml/well. The monocytes were cultured in the presence of the test compounds and controls at various dilutions as set out in the table below. After overnight incubation, LPS (10 μg/ml) and IFNγ (100 ng/ml) were added to stimulate monocyte activation and elevate CB2 expression. After 48 hours, the supernatants were removed for CBA cytokine analysis.
Bring all buffers to room temperature and vortex before use 1. Make up assay buffer by adding to 450 ml distilled H2O and mixing gently. Store at 4° C. 2. Make up biotin-conjugate mix by 600 μl of each biotin-conjugates into a universal. 3. Make up bead mix by adding 300 μl of each bead set. 4. […]

In experiment [2] the test system is T cells (balb/c mouse spleen cells). Nature of the experiment: T cell proliferation (3H-thymidine incorporation, anti-CD3 coated plates). The experiment is classed as cell-based. The settings on record: plates 1-3 are triplicates. On the procedure:
The compounds of the invention were tested to determine the extent to they can inhibit T cell proliferation. T cells are responsible for co-ordinating the adaptive immune response and are drivers of inflammation in a wide range of disease states.
HBSS+2% HEPES buffer (500 ml+10 ml), Alpha MEM (500 ml)+2% HEPES (10 ml)+1% Pen/strep (5 ml)+2% L-Glutamine (10 ml)+50 μM 2-ME (500 μl) and Normal Mouse serum (NMS)
1. Coat 3×96 well plates columns 1-8, rows A-H with 100 μl anti-mouse CD3 at […] in PBS. 192 well in total, therefore made up 24 mls in PBS by adding 17 μl of stock at 1.44 mg/ml. Incubate 2 hours 37° C. 2. Pooled blood from 2 balb/c mice following cardiac puncture for preparation of NMS and removed spleens into HBSS+Hepes. 3. Placed blood at 37° C. for 30 minutes to clot, spun 3,000 rpm, 10 minutes in chilspin. Removed serum, filter sterilised and kept in fridge until use. 4. Transferred spleens to petri dishes containing 10 ml HBSS, used clean sterile wire mesh placed over spleen to release cells using a glass rod. Washed cells off mesh using pasteur pipette and transferred to a 15 ml tube. Spun at 1000 rpm for 10 minutes at room temperature (RT). 5. Resuspended cells, added 0.5 ml sterile DW to lyse RBC, mixed and immediately diluted in HBSS, transfered to 50 ml tube passing through cell strainer (70 μM) to remove debris, spun as above, washed cells once more in HBSS and finally resuspended in […] alpha MEM containing supplements (as above). 6. Cell counts—252 cells×2×5×10^4=2.52×10^7 cells/ml in 4 mls=10^8 cells in total. Dilute 2 mls to 25 mls to give a cell concentration of 2×10^6 cells/ml. 7. Added 250 μl NMS to cells to give a concentration of 1%. 8. Washed anti-CD3 coated plates 3×PBS. 9. Transferred 100 μl aliquots of cells to coated wells, rows A-H columns 1-8 of 3×96-well plates. Add equal volume of compounds diluted in a 96 well plate as shown below.
Transferred 3.5 μl compound at 10 mM to 346.5 μl media (1/100), transferred 35 μl of 1/100 dilution to 315 μl media (1/10) and so on down plate to give serial 1/10 dilutions of compound. Transferred 100 μl aliquots of different compound dilutions to wells of triplicate plates containing T cells.
Culture for 48 hours, then add a drop (16 μl) of ^3H-thymidine to each well and incubate overnight at 37° C. 5% CO2. Harvest. Measure ^3H-thymidine incorporation.

T1 sequence (Q99720 whole entry): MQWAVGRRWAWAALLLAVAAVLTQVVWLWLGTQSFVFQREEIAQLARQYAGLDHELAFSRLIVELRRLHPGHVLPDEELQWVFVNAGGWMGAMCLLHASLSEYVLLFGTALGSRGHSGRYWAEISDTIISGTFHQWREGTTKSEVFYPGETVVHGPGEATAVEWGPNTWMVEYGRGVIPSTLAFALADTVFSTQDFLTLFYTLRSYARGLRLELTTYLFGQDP

`COc1cc2c(cc1OC)[C@@H]1C[C@@H](O)[C@H](CC(C)C)CN1CC2` (single isomer, unassigned) [Isomer A]: the “Percentage Inhibition of Specific Binding at Sigma-1 Receptor” value at Sigma σ1 Receptor stood at 48%. Further, on Sigma σ2 Receptor, the “Percentage Inhibition of Specific Binding at Sigma-2 Receptor” value stood at 64%.

On to `COc1cc2c(cc1OC)[C@H]1C[C@H](O)[C@@H](CC(C)C)CN1CC2` (single isomer, unassigned) [Isomer B], for which the “Percentage Inhibition of Specific Binding at Sigma-1 Receptor” value on Sigma σ1 Receptor came out at 82%. Also, the “binding to the sigma-1 receptor (in words)” value at Sigma σ1 Receptor (comparison of the four isomers) is reported as “bind more strongly; also recorded: stronger binding”. Further, the “reduced production of IL-4” value in experiment [1] (LPS/IFN stimulated monocytes, 100 μM to 10 pM, FIG. 2) is given as “at the majority of concentrations tested”. Besides, the “reduced production of IL-2” value in experiment [1] (LPS/IFN stimulated monocytes, 100 μM to 10 pM, FIG. 3) is “at all concentrations tested”. For the same compound, the “reduced production of IL-5” value in experiment [1] (LPS/IFN stimulated monocytes, 100 μM to 10 pM, FIG. 4) was “at the majority of concentrations tested”. Also, in experiment [1] (LPS/IFN stimulated monocytes, 100 μM to 10 pM, FIG. 5), the “reduced production of IL-10” value is given as “at the majority of concentrations tested”. Besides, in experiment [1] (LPS/IFN stimulated monocytes, 100 μM to 10 pM, FIG. 6), the “reduced production of IL-12” value is on record as “at all concentrations tested”. Moreover, the “production of a range of different cytokines in monocytes” value in experiment [1] (monocytes stimulated by LPS/IFN, FIGS. 1 to 6) is on record as “reduced the production”. Further, the “T cell Proliferation (3H-thymidine incorporation)” value (from here on “T cell Proliferation”) in experiment [2] (listed as A = 100 μM, listed as RU350) was 42 and 51.4 and 28; in experiment [2] (listed as C = 1 μM, listed as RU350), 62557.5 and 58812.6 and 46179.1; in experiment [2] (listed as D = 100 nM, listed as RU350) it was 63867.2 and 67792.8 and 54194.4; in experiment [2] (listed as E = 10 nM, listed as RU350), 66290 and 70736.7 and 53277.2; in experiment [2] (listed as F = 1 nM, listed as RU350), 49054.3 and 74224 and 58924.4; in experiment [2] (listed as G = 100 pM, listed as RU350), 46056.3 and 60937.4 and 59965.8. Besides, the “T cell Proliferation” value in experiment [2] (listed as H = 10 pM, listed as RU350) is 52646.7 and 41897.1 and 57220.4. At Sigma σ2 Receptor, the “Percentage Inhibition of Specific Binding at Sigma-2 Receptor” value worked out at 64%.

As for `CCCCCCC(C)(C)c1cc(O)c2c(c1)OC(C)(C)C1CCC(=O)CC21` (stereo not shown) [Nab, Nabilone, reference compound], the “T cell Proliferation” value in experiment [2] (listed as B = 10 μM) is 72188.2 and 78370.5 and 40910.7; in experiment [2] (listed as C = 1 μM), 48534.9 and 44235.7 and 52155.5; in experiment [2] (listed as D = 100 nM) it was 65222 and 55348.5 and 41607.6; in experiment [2] (listed as E = 10 nM) it was 44970.2 and 46765.1 and 36442; in experiment [2] (listed as F = 1 nM) it was 36994.3 and 35152.2 and 37988.7; in experiment [2] (listed as G = 100 pM), 37202.7 and 44920.7 and 36359.1. Further, in experiment [2] (listed as H = 10 pM), the “T cell Proliferation” value was 38818.1 and 34530 and 39295.7.
